Assay results: patent publication US20260083865A1, “PROSTATE SPECIFIC MEMBRANE ANTIGEN (PSMA) LIGANDS AND USE THEREOF” (priority 2022, published 2026)
Where two headings read alike, the source gives them in different places. Numbered stars: 1 amine (or outer) side, 2 acyl side, 3 side chain; on linkers, the order of the positions; unused ones are H or OH. Bridge positions count the residues as written; N and C are the ends. Square brackets hold non-standard residues; d marks the D form. Side chains are listed from the residue outwards. Peptide text beside a SMILES is read from it. * marks the point of attachment. TtdsdLys(DOTA)NH2 = NC(=O)[C@@H](CCCCNC(=O)CN1CCN(CC(=O)O)CCN(CC(=O)O)CCN(CC(=O)O)CC1)NC(=O)CCC(=O)NCCCOCCOCCOCCCN*; X7 = O=C(O)CN1CCN(CC(=O)O)CCN(CC(=O)NC2CCN(CC(=O)*)CC2)CCN(CC(=O)O)CC1; DOTA = O=C(O)CN1CCN(CC(=O)O)CCN(CC(=O)*)CCN(CC(=O)O)CC1; X16 = CNC(=N)N(C)CCC[C@H](N[*:1])C(=O)[*:2]; Phe(4-Cl) = N[C@@H](Cc1ccc(Cl)cc1)C(=O)O; Arg(Me2s) = CN=C(NC)NCCC[C@H](N)C(=O)O; Arg(Me) = CNC(=N)NCCC[C@H](N)C(=O)O; Hyp = O=C(O)[C@@H]1C[C@@H](O)CN1; X1 = O=C(CC1CCN([*:1])CC1)[*:2]; Lys(Me) = CNCCCC[C@H](N)C(=O)O; Tle = CC(C)(C)[C@H](N)C(=O)O; Propanoyl(3-OH) = O=C(CCO)*; 4Amb = NCc1ccc(C(=O)O)cc1; Isovaleryl = CC(C)CC(=O)*; AEEA = NCCOCCOCC(=O)O; Aib = CC(C)(N)C(=O)O; CH2 = C([*:1])[*:2]; Ahx = NCCCCCC(=O)O

How the values were obtained:
[1] = molecular target: T1, PSMA-expressing C4-2 cells (Homo sapiens, UniProt Q04609); experiment: FACS binding assay (competition with 50 nM PSM-0183); details: read-out: pIC50 [C4-2] CAT (converted)
T1 construct: PSMA-expressing C4-2 cells (ATCC, Cat. No. CRL-3314) were cultured in RPMI-1640; host or cells: C4-2 cells
Procedure, shortened: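 C4-2 cells were incubated 1 h at 4 °C with 50 nM AF488-labelled peptide PSM-0183 plus increasing test compound concentrations, then washed twice in ice-cold buffer. Median fluorescence in the AF488 channel was read by flow cytometry. IC50/pIC50 was derived by 4PL fitting of MFI versus concentration.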

[2] = molecular target: T2, Fc-fusion protein of human PSMA (hPSMA-Fc) (Homo sapiens, UniProt Q04609); experiment: Surface plasmon resonance assay (Biacore T200, single cycle kinetic); assay type: binding; details: read-out: pKD CAT (converted)
T2 construct: purchased Acro Biosystems PSA-H5264
Procedure, shortened: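 hPSMA-Fc was captured (~1000 RU) on an Fc-binding-peptide CM5 chip, and compounds were run in single cycle kinetic mode at 25° C in HBST with 0.1% DMSO. Double-blank-corrected sensorgrams were fitted to a 1:1 Langmuir model to give KD, reported as pKD.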

[3] = FACS binding, C4-2 cells, competition with 50 nM PSM-0183, category
[4] = SPR, hPSMA-Fc, single cycle kinetic, 25° C., category
[5] = pIC50 category of FACS binding, C4-2 cells
[6] = pKD category for PSMA SPR activity assay, hPSMA-Fc, 25° C.
[7] = FACS binding, PSMA-expressing C4-2 cells, pIC50 category
[8] = PSMA SPR assay, hPSMA-Fc, 25° C., pKD category

T1 sequence (Q04609 whole entry): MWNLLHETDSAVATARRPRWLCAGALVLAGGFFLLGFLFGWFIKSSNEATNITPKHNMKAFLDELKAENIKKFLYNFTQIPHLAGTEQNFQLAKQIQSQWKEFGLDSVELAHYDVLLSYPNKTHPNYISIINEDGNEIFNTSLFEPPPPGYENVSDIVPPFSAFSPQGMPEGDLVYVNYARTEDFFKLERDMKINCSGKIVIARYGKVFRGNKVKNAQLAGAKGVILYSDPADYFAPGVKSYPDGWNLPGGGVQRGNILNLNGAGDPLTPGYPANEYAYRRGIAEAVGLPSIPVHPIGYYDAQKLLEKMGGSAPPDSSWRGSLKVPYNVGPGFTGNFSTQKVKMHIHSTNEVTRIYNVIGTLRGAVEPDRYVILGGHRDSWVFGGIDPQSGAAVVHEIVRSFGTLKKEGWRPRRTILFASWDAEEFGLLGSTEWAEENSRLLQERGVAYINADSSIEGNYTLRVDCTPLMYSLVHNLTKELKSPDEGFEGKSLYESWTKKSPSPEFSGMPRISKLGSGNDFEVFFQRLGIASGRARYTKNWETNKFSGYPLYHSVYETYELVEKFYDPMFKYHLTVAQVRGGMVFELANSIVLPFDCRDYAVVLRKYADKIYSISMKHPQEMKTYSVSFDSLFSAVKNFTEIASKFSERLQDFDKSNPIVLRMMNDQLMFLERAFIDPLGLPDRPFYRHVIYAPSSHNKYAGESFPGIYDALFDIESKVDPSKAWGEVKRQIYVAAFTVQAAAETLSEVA
T2 sequence (Q04609 44-750 limits assumed): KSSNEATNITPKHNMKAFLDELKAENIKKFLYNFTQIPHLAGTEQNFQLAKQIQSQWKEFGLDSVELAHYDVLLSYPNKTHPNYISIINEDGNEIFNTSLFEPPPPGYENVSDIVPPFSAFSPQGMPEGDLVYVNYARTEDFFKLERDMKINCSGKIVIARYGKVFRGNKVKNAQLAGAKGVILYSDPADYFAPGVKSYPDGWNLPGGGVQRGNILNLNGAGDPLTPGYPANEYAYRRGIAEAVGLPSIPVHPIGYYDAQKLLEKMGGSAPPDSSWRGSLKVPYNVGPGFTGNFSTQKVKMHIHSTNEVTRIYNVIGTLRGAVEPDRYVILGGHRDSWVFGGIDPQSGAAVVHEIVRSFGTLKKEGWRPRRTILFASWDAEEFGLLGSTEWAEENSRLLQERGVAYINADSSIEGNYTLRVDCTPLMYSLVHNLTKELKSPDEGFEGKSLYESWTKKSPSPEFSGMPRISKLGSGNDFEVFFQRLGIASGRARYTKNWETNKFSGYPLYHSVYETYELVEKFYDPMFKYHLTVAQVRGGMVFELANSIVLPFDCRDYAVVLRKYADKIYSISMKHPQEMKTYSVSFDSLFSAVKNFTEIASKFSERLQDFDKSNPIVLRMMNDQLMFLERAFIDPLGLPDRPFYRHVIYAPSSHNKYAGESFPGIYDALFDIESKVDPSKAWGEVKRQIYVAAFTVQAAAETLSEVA

In the case of CC(=O)N[C@H](C(=O)N[C@@H](C)C(=O)N[C@@H](Cc1ccccc1)C(=O)N[C@H]1CSSC[C@@H](C(=O)N[C@H](C(=O)N[C@H](C(=O)N[C@@H](CC(=O)O)C(=O)NCCCOCCOCCOCCCNC(=O)CCC(=O)N[C@H](CCCCNC(=O)CN2CCN(CC(=O)O)CCN(CC(=O)O)CCN(CC(=O)O)CC2)C(N)=O)[C@@H](C)O)C(C)(C)C)NC(=O)[C@H](CC(N)=O)NC(=O)[C@H](C)NC(=O)[C@H](CCCNC(=N)N)NC(=O)[C@H](CCCCN)NC1=O)[C@@H](C)O [PSM-0266, Ac-Thr-Ala-Phe-[Cys-Lys-Arg-Ala-Asn-Cys]-Tle-Thr-Asp-Ttds-lys(DOTA)-NH2] (Ac-TAFCKRANC[Tle]TD-{TtdsdLys(DOTA)NH2}; disulfide 4-9), the IC50 [1, 3] is reported as < 200 nM and the Kd [2, 4] is reported as 12.6 to 126 nM.
With CCCC[C@H](NC(=O)[C@@H]1CSSC[C@H](NC(=O)[C@H](Cc2ccccc2)NC(=O)[C@H](C)NC(=O)[C@H](NC(C)=O)[C@H](C)O)C(=O)N[C@@H](CCCCN)C(=O)N[C@@H](CCCNC(=N)N)C(=O)N[C@@H](C)C(=O)N[C@@H](CC(N)=O)C(=O)N1)C(=O)N[C@H](C(=O)N[C@@H](CC(=O)O)C(N)=O)[C@@H](C)O [PSM-0525, Ac-thr-Als-Phe-[Cys-Lys-Arg-Als-Asn-Cys]-Nle-Thr-Asp-NH2] the IC50 [1, 5] was > 3160 nM and the Kd [2, 6] was > 501 nM.
CC(=O)N[C@H](C(=O)NC(C)(C)C(=O)N[C@@H](Cc1ccccc1)C(=O)N[C@H]1CSSC[C@@H](C(=O)N[C@H](C(=O)N[C@H](C(N)=O)[C@@H](C)O)C(C)(C)C)NC(=O)[C@H](CC(N)=O)NC(=O)[C@H](CCCCNC(=O)COCCOCCNC(=O)CN2CCN(CC(=O)O)CCN(CC(=O)O)CCN(CC(=O)O)CC2)NC(=O)[C@H](CCCNC(=N)N)NC(=O)[C@H](CCCCN)NC1=O)[C@@H](C)O [PSM-0401, Ac-Thr-Aib-Phe-[Cys-Lys-Arg-Lys(DOTA-020c)-Asn-Cys]-Tle-Thr-NH2] (Ac-T[Aib]FCKRK([AEEA-DOTA])NC[Tle]T-NH2; disulfide 4-9) was tested, and the IC50 [1, 5] was < 200 nM and the Kd [2, 6] was < 12.6 nM.
C[C@@H](O)[C@H](NC(=O)[C@@H](NC(=O)[C@@H]1CSSC[C@H](NC(=O)[C@H](Cc2ccc(Cl)cc2)NC(=O)C(C)(C)NC(=O)CCCCCNC(=O)CN2CCN(CC(=O)O)CCN(CC(=O)O)CCN(CC(=O)O)CC2)C(=O)N[C@@H](CCCCN)C(=O)N[C@@H](CCCNC(=N)N)C(=O)NC(C)(C)C(=O)N[C@@H](CC(N)=O)C(=O)N1)C(C)(C)C)C(N)=O [PSM-0310, DOTA-Ahx-Aib-Pcf-[Cys-Lys-Arg-Aib-Asn-Cys]-Tle-Thr-NH2] ({DOTA-Ahx}-[Aib][Phe(4-Cl)]CKR[Aib]NC[Tle]T-NH2; disulfide 3-8) was tested, and the IC50 [1, 7] was < 200 nM and the Kd [2, 8] was < 12.6 nM.
For CC(=O)N[C@H](C(=O)NC(C)(C)C(=O)N[C@@H](Cc1ccccc1)C(=O)N[C@@H]1CSSC[C@H](C(=O)N[C@H](C(=O)N[C@H](C(N)=O)[C@@H](C)O)C(C)(C)C)NC(=O)[C@H](CC(N)=O)NC(=O)C(C)(C)NC(=O)[C@H](CCCNC(=N)N)NC(=O)[C@H](CCCCN)NC1=O)[C@@H](C)O [PSM-0327, Ac-Thr-Aib-Phe-[cys-Lys-Arg-Aib-Asn-cys]-Tle-Thr-NH2] (Ac-T[Aib]F[dC]KR[Aib]N[dC][Tle]T-NH2; disulfide 4-9), the IC50 [1, 7] was > 3160 nM and the Kd [2, 8] was > 501 nM.
With CNCCCC[C@@H]1NC(=O)[C@@H](NC(=O)[C@H](Cc2ccc(Cl)cc2)NC(=O)C(C)(C)NC(=O)[C@@H](NC(=O)CC2CCN(C(=O)CN3CCN(CC(=O)O)CCN(CC(=O)O)CCN(CC(=O)O)CC3)CC2)[C@@H](C)O)CSSC[C@@H](C(=O)N[C@H](C(=O)N[C@H](C(N)=O)[C@@H](C)O)C(C)(C)C)NC(=O)[C@H](CC(N)=O)NC(=O)C(C)(C)NC(=O)[C@H](CCCN(C)C(=N)NC)NC1=O [PSM-0590, DOTA-Cmp-Thr-Aib-Pcf-[Cys-Lys(Me)-RMe2a-Aib-Asn-Cys]-Tle-Thr-NH2] ({DOTA}-[X1]T[Aib][Phe(4-Cl)]C[Lys(Me)][X16][Aib]NC[Tle]T-NH2; disulfide 5-10) the IC50 ([1]; FACS binding, C4-2 cells, category) was < 200 nM and the Kd ([2]; PSMA SPR assay, category) was < 12.6 nM.
With CC(C)CC(=O)NC(C)(C)C(=O)N[C@@H](Cc1ccc(Cl)cc1)C(=O)N[C@H]1CSSC[C@@H](C(=O)N[C@H](C(=O)N[C@H](C(=O)N[C@H](CCCCNC(=O)CN2CCN(CC(=O)O)CCN(CC(=O)O)CCN(CC(=O)O)CC2)C(N)=O)[C@@H](C)O)C(C)(C)C)NC(=O)[C@H](CC(N)=O)NC(=O)C(C)(C)NC(=O)[C@H](CCCNC(=N)N)NC(=O)[C@H](CCCCN)NC1=O [PSM-0444, Iva-Aib-Pcf-[Cys-Lys-Arg-Aib-Asn-Cys]-Tle-Thr-lys(DOTA)-NH2] (Isovaleryl-[Aib][Phe(4-Cl)]CKR[Aib]NC[Tle]T[dK](DOTA)-NH2; disulfide 3-8) the IC50 [1, 5] was < 200 nM and the Kd [2, 6] was < 12.6 nM.
For CC(=O)N[C@H](C(=O)NC(C)(C)C(=O)N[C@@H](Cc1ccccc1)C(=O)N[C@H]1CSSC[C@@H](C(=O)N[C@H](C(=O)N[C@H](C(=O)N[C@@H](CC(=O)O)C(N)=O)[C@@H](C)O)C(C)(C)C)NC(=O)[C@H](CC(N)=O)NC(=O)[C@@H]2C[C@@H](O)CN2C(=O)[C@H](CCCNC(=N)N)NC(=O)[C@H](CCCCN)NC1=O)[C@@H](C)O [PSM-0181, Ac-Thr-Aib-Phe-[Cys-Lys-Arg-Hyp-Asn-Cys]-Tle-Thr-Asp-NH2] (Ac-T[Aib]FCKR[Hyp]NC[Tle]TD-NH2; disulfide 4-9), the IC50 [1, 3] was < 200 nM and the Kd [2, 4] was < 12.6 nM.
For C/N=C(/NC)NCCC[C@@H]1NC(=O)[C@H](CCCCNC)NC(=O)[C@@H](NC(=O)[C@H](Cc2ccc(Cl)cc2)NC(=O)C(C)(C)NC(=O)[C@@H](NC(=O)CC2CCN(C(=O)CN3CCN(CC(=O)O)CCN(CC(=O)O)CCN(CC(=O)O)CC3)CC2)[C@@H](C)O)CSSC[C@@H](C(=O)N[C@H](C(=O)N[C@H](C(N)=O)[C@@H](C)O)C(C)(C)C)NC(=O)[C@H](CC(N)=O)NC(=O)C(C)(C)NC1=O [PSM-0499, DOTA-Cmp-Thr-Aib-Pcf-[Cys-Lys(Me)-Egd-Aib-Asn-Cys]-Tle-Thr-NH2] ({DOTA}-[X1]T[Aib][Phe(4-Cl)]C[Lys(Me)][Arg(Me2s)][Aib]NC[Tle]T-NH2; disulfide 5-10), the IC50 [1, 5] was < 200 nM and the Kd [2, 6] was < 12.6 nM.
In the case of C[C@@H](O)[C@H](NC(=O)[C@@H](NC(=O)[C@@H]1CSSC[C@H](NC(=O)[C@H](Cc2ccc(Cl)cc2)NC(=O)C(C)(C)NC(=O)CCO)C(=O)N[C@@H](CCCCN)C(=O)N[C@@H](CCCNC(=N)N)C(=O)N[C@@H](CCCCNC(=O)CN2CCC(NC(=O)CN3CCN(CC(=O)O)CCN(CC(=O)O)CCN(CC(=O)O)CC3)CC2)C(=O)N[C@@H](CC(N)=O)C(=O)N1)C(C)(C)C)C(N)=O [PSM-0324, HPA-Aib-Pcf-[Cys-Lys-Arg-Lys(DOTA-APAc)-Asn-Cys]-Tle-Thr-NH2] ({Propanoyl(3-OH)}-[Aib][Phe(4-Cl)]CKRK(X7)NC[Tle]T-NH2; disulfide 3-8), the IC50 [1, 7] is reported as < 200 nM and the Kd [2, 8] is reported as < 12.6 nM.
With CNCCCC[C@@H]1NC(=O)[C@@H](NC(=O)[C@H](Cc2ccc(Cl)cc2)NC(=O)C(C)(C)NC(=O)[C@@H](NC(=O)CC2CCN(C(=O)CN3CCN(CC(=O)O)CCN(CC(=O)O)CCN(CC(=O)O)CC3)CC2)[C@@H](C)O)CSCSC[C@@H](C(=O)N[C@H](C(N)=O)C(C)(C)C)NC(=O)[C@H](CC(N)=O)NC(=O)C(C)(C)NC(=O)[C@H](CCCNC(=N)NC)NC1=O [PSM-0420, DOTA-Cmp-Thr-Aib-Pcf-[Smc-Lys(Me)-Arg(Me)-Aib-Asn-Cys]-Tle-NH2] ({DOTA}-[X1]T[Aib][Phe(4-Cl)]C[Lys(Me)][Arg(Me)][Aib]NC[Tle]-NH2; linker 5-10 via CH2) the IC50 [1, 5] was < 200 nM and the Kd [2, 6] was < 12.6 nM.
For CC(=O)N[C@H](C(=O)NC(C)(C)C(=O)N[C@@H](Cc1ccccc1)C(=O)N[C@H]1CSSC[C@@H](C(=O)N[C@H](C(=O)N[C@H](C(N)=O)[C@@H](C)O)C(C)(C)C)NC(=O)[C@H](CC(N)=O)NC(=O)[C@H](CCCCNC(=O)c2ccc(CNC(=O)CN3CCN(CC(=O)O)CCN(CC(=O)O)CCN(CC(=O)O)CC3)cc2)NC(=O)[C@H](CCCNC(=N)N)NC(=O)[C@H](CCCCN)NC1=O)[C@@H](C)O [PSM-0419, Ac-Thr-Aib-Phe-[Cys-Lys-Arg-Lys(DOTA-Pamb)-Asn-Cys]-Tle-Thr-NH2] (Ac-T[Aib]FCKRK([4Amb-DOTA])NC[Tle]T-NH2; disulfide 4-9), the IC50 [1, 5] was < 200 nM and the Kd [2, 6] was < 12.6 nM.
With CC(=O)N[C@H](C(=O)NC(C)(C)C(=O)N[C@@H](Cc1ccccc1)C(=O)N[C@H]1CSSC[C@@H](C(=O)N[C@H](C(=O)N[C@@H](Cc2c[nH]c3ccccc23)C(N)=O)C(C)(C)C)NC(=O)[C@H](CC(N)=O)NC(=O)C(C)(C)NC(=O)[C@H](CCCNC(=N)N)NC(=O)[C@H](CCCCN)NC1=O)[C@@H](C)O [PSM-0376, Ac-Thr-Aib-Phe-[Cys-Lys-Arg-Aib-Asn-Cys]-Tle-Trp-NH2] (Ac-T[Aib]FCKR[Aib]NC[Tle]W-NH2; disulfide 4-9) the IC50 [1, 5] was < 200 nM and the Kd [2, 6] was < 12.6 nM.
